Experimental data: US20260234159A1, “SMALL MOLECULE TREATMENT OF FATTY LIVER DISEASE AND HCC” (SCANDIEDGE THERAPEUTICS AB, priority 2023, published 2026)
pIC50: −log10 of the molar value. Where two headings read alike, the source gives them in different places.

Columns and labels:
JNK1 = target: T1, JNK1 (Homo sapiens, UniProt P45983); assay: JNK enzyme activity assay, purified JNK1; type: biochemical; conditions: 10 μM, Phospho-c Jun (Ser 73) by western blot
T1 construct: purchased Thermo Fisher PV3319
Protocol: (§1) JNK activity was measured with JNK Activity Assay Kit (ab273417, Abcam). JNK activity assay was performed with purified JNK, JNK1 (PV3319, Thermo Fisher), JNK2 (PV3620, Thermo Fisher) JNK3(PV4563, Thermo Fisher). 0.3 μg of each JNK purified protein were incubated with c-Jun Protein/ATP in Kinase Assay Buffer for 1 hr followed by manufacturer's instruction with 10 μM small molecules. Catalysed substrate Phospho-c Jun (Ser 73) was detected by western blot analysis. Western blot analysis performed with JNK Activity Assay kit supplied anti-Phospho-cJun (Ser 73) Specific Antibody at 1:10,000 for overnight and Goat Anti-Rabbit HRP (ab205718, abeam) at 1:10,000 for 1 hr incubation as primary and secondary antibody.

HepG2 cells [1] = assay: Triglyceride (TAG) measurement assay, one week steatosis model; type: cell-based, human; conditions: Homo sapiens
Protocol: (§2) HepG2 wild type cells were purchased from genome engineering company Synthego. Cells were maintained with Roswell Park Memorial Institute growth media, RPMI, 1640 (R2405, Sigma-Aldrich) and supplemented with 10% fetal bovine serum (FBS, F7524, Sigma-Aldrich), 1% penicillin-streptomycin (P/S, P4333, Sigma-Aldrich). Steatosis induction media was prepared as high glucose Dulbecco's Modified Eagle Media (DMEM, D0819, Sigma-Aldrich) with 10% FBS, 1% P/S media supplemented with 10 μg/ml insulin (I9278, Sigma-Aldrich), and 10 μM T0901317 (T2320, Sigma-Aldrich). HepG2 cells were seeded 6×10^4 cells per well for 96-well plate and 1×10^6 cells per well for 6-well plate. HepG2 cells were incubated with steatosis induce media (SM) for one week by 3 day+2 day+2 day with total three times media exchange.
HepG2 cells were seeded at 6×10^4 cells per well into 96 well plate and induced steatosis for one week with 10 μM of target drugs. After steatosis induction, cells were washed with 200 μl of phosphate buffered saline (PBS) and triglyceride contents was measured by Triglyceride Assay Kit—Quantification (ab65336, Abcam) following manufacturer's instruction. Optical density (O.D) values were detected with microplate reader at 570 nm (Hidex Sense Beta Plus).
(§3) HepG2 cells were seeded at 60,000 cells per well in 96 well plate. Using steatosis induce media, the cells were treated with 10 μM of target drugs for one week. The media was changed 3 times at day 0, day 3 and day 5. TAG assay was performed using MAK266-1KT SDS Triglyceride Quantification Colorimetric kit and cell viability analysis was performed using MTT assay.

[2] = MTT cell viability after one week steatosis (ranking of target molecules); type: cell-based, human; conditions: human, HepG2 cells (wild type); HepG2, 10 μM, one week steatosis induce media, MTT; Control 100.00
Protocol: as §2, §3

JNK3 = target: T2, JNK3 (Homo sapiens, UniProt P53779); assay: JNK enzyme activity assay, purified JNK3; type: biochemical; conditions: 10 μM; greatest inhibition was obtained for JNK3
T2 construct: purchased Thermo Fisher PV4563
Protocol: as §1

JNK2 = target: T3, JNK2 (Homo sapiens, UniProt P45984); assay: JNK enzyme activity assay, purified JNK2; type: biochemical; conditions: 10 μM, Phospho-c Jun (Ser 73) by western blot
T3 construct: purchased Thermo Fisher PV3620
Protocol: as §1

JNK protein = assay: Cellular thermal shift assay (CETSA), protein-ligand binding; design: species or system human; conditions: 10 μM, 60° C.; versus JNK-IN-5A
Protocol: HepG2 cells were trypsinized and calculated at 1×10^6 cells into 1.5 ml micro centrifuge tube with 100 μl cell culture media. Cells were incubated in a CO2 incubator at 37° C. for 1 hr with 10 μM of each target drug. Drug treated cells were heated at 60° C. for 3 min using a heat plate. Heated cells were lysed with Native lysis buffer (ab156035, Abcam). Thermal shifted JNK proteins were detected with western blot analysis using JNK1+2+3 antibody (Ab179461, Abcam) and band intensity was analysed with ImageJ program.

HepG2 cells [3] = assay: Invasion assay (transwell); type: cell-based, human; conditions: Homo sapiens, HepG2, 24 hr, read-out: invasiveness reduced by
Protocol: The effects of the treatment with the compounds on the invasion ability of HepG2 and Huh7 cells were determined by 8 μm pores transwell chamber (Corning™ 3464, USA).
(§4) Transwell membrane was coated with 100 μl collagen (Sigma C3867, USA) diluted with PBS to a concentration of 1 mg/ml. After overnight incubation at 4° C., the collagen solution was discarded and the membrane was washed with PBS. 100,000 cells in 200 μl serum free media together with the tested compounds were added into the upper well and 600 μl of 10% FBS supplemented growth media was added to the lower well as an invasive attractant in a 24-well plate. Cells were incubated at 37° C. in a CO2 incubator for one day. The cells were fixed with 3.7% formaldehyde for 30 minutes at room temperature and washed with PBS twice. The cells were stained with 1% crystal violet in PBS for 20 minutes and residual cells in inner membrane were swabbed gently with a cotton swab. Invaded cells located at the outer membrane were imaged by ZOE Fluorescent Cell Imager (Bio-Rad, USA) and counted by image. For wound healing assay, 100,000 cells per well were seeded into 24-well plates and grown until 95-100% confluent. Linear wound was created by using a 200 μl pipette tip. Image was recorded at the time point of day 0 until control group wound closure with 1 μM of compounds by ZOE Fluorescent Cell Imager (Bio-Rad, USA). Wound areas were measured using ImageJ software.

HepG2 cells [4] = assay: MTT cell viability after one week steatosis (ranking of target molecules); type: cell-based, human
Protocol: as §2, §3

[5] = MTT cell viability / IC50 in growth media; type: cell-based, human; conditions: human, HepG2 cells; 10 μM, treatment for 2 days
Protocol: (§5) The cytotoxic effects of the synthesized drugs on the HepG2 cells were tested by MTT (Thiazolyl Blue Tetrazolium Bromide) method. HepG2 cells were seeded 2×10^4 cells per well in 96-well plate in 200 μL growth media. […] After the incubation period, 5 mg/ml MTT (M2128, Sigma-Aldrich) solution in PBS (10 μL) was added to each well. After 1 hr, the MTT solution and all media were removed from the wells. 100 μl of DMSO was added and mixed to dissolve the formazan crystals. Cell viability was analysed by measuring the absorbance of the dissolved formazan in a microplate reader at a wavelength of 570 nm with microplate reader (Hidex Sense Beta Plus).
(§6) HepG2 cells were maintained and used with RPMI 1640 (R2405, Sigma-Aldrich) supplemented with 10% fetal bovine serum (F7524, Sigma-Aldrich), 1% P/S (P4333, Sigma-Aldrich). 20,000 cells per well of HepG2 cells were seeded into a 96-well plate and triplicated for MTT assay and LDH assay. Cell viability was measured by MTT assay (M6494, ThermoFisher) and cytotoxicity was measured by LDH assay kit (ab65393, abcam) by following manufacturer's instructions. Optical density (O.D) was numerated using a microplate reader (Hidex Sense Meta Plus).

HepG2 cells [6] = assay: MTT cell viability / IC50 in growth media; type: cell-based, human; conditions: Homo sapiens, 48 h; HepG2, treatment for 2 days, 30 μM to 30 nM
Protocol: as §5, §6

HepG2 cells [7] = assay: Wound healing assay; type: cell-based; conditions: Homo sapiens, HepG2, 96 h, day 4, untreated 100% wound closure, read-out: wound healing delayed by
Protocol: as §4

HepG2 cells [8] = assay: FACs analysis with PI staining (cell cycle); type: cell-based, human; conditions: PI FACs, 10 μM, 2 days
Protocol: 400,000 HepG2 cells were seeded in a 6-well plated and treated with 10 μM of the compounds for 2 days. Cells were fixed with 70% ethanol and stained with 50 μg/ml PI. Prepared cells were analysed using BD FACS Canto II Flow Cytometry system at PE-A channel 10,000 cells per group. The data was histogram plotted with BD FACSDiva 9.0.

JNK1/2/3 = assay: Western blot, JNK1/2/3 P54 and p46 isoforms; type: cell-based, human; conditions: 10 μM, 2 days
Protocol: HepG2 cells were seeded into a 6-well plate at 400,000 cells per well. After treatment with 10 μM of JNK-IN-5A and its derivatives for two days, lysates were harvested with CelLytic M (C2978, Sigma-Aldrich). […] SDS PAGE were performed using Mini-PROTEAN® TGX™ Precast Gels (Bio-Rad) and transferred using Trans-Blot® Turbo™ Transfer System (Bio-Rad). […] ImageQuantTMLAS 500 (29-0050-63, GE) was used to detect protein bands.

HepG2 cells [9] = assay: Mitochondrial membrane potential assay (TMRE); type: cell-based, human; conditions: 10 μM, one day
Protocol: HepG2 cells were seeded into a 6-well plate at 400,000 cells per well. After treatment with the compounds at desired concentration and time, TMRE (ab113852, abcam), Autophagy (ab139484, abcam), ROS (ab113851, abcam), and Lipid peroxidation (ab243377, abcam) assay were performed according to manufacturer's instructions. Fluorescence images were taken using ZOE™ Fluorescent Cell Imager (Biorad) and ROI of fluorescence intensity was measured and calculated by Image J. For microplate reader florescence assay, 40,000 of HepG2 cells were seeded into a 96-well plate and triplicated. GFP (Ex480 nm, Em530 nm) and RFP (Ex549 nm, Em574 nm) were measured using a microplate reader (Hidex Sense Meta Plus).

[10] = 168 h, HepG2, 10 μM, one week steatosis induce media, Control 100.00, read-out: TAG (%)
[11] = HepG2, 168 h, ratio between TAG content and cell viability, Control 100.0, read-out: TAG/cell viability

T2 sequence (P53779 whole entry): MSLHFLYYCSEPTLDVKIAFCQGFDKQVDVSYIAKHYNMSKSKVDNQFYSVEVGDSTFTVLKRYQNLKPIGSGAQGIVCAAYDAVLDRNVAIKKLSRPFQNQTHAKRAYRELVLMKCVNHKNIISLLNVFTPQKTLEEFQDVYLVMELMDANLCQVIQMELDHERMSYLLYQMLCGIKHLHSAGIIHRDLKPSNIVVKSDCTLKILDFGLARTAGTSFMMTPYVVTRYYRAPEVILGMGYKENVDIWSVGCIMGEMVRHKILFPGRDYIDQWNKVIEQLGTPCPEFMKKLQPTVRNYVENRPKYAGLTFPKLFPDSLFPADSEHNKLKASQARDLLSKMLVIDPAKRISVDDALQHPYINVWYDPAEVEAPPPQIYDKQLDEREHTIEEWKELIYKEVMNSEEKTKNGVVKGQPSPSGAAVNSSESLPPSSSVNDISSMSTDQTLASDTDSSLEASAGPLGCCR
T1 sequence (P45983 whole entry): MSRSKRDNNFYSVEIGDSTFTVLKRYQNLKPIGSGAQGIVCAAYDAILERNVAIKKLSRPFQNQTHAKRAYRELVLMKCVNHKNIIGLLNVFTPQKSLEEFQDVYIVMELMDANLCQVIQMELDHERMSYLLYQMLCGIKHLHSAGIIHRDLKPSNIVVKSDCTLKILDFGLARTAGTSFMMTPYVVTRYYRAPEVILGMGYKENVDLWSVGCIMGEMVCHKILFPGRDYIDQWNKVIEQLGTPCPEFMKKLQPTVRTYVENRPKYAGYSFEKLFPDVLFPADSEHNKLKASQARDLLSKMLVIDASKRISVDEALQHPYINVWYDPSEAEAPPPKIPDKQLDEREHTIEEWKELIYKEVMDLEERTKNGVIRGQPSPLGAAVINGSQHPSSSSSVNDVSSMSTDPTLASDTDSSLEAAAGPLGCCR
T3 sequence (P45984 whole entry): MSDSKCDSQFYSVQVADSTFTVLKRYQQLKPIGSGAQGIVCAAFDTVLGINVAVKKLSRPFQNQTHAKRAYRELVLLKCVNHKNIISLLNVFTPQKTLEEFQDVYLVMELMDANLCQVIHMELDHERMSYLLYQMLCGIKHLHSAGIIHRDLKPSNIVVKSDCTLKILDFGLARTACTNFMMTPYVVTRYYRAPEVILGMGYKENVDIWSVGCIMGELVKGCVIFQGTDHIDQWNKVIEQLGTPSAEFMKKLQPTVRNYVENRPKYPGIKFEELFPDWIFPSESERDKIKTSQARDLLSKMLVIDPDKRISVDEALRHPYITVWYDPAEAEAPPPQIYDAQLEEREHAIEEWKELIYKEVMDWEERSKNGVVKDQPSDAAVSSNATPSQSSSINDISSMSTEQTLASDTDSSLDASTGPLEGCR

SMILES	JNK1 activity (JNK1)	activity at 10 µM (HepG2 cells [1]; [10]) [%]	activity at 10 µM (HepG2 cells [1]; [11]) [%]	viability at 1 week, 10 µM [2] [%]	JNK3 activity (JNK3)	JNK2 activity (JNK2)	binding to the JNK protein (JNK protein)	inhibition at 1 µM (HepG2 cells [3]) [%]	cell viability of HepG2 (HepG2 cells [4])	viability at 2 days, 10 µM [5] [%]	pIC50 (HepG2 cells [6])	inhibition at 1 µM (HepG2 cells [7]) [%]	Cell population G0/G1 (HepG2 cells [8])	Cell population G2/M (HepG2 cells [8])	Cell population S (HepG2 cells [8])	JNK1/2/3 p46 expression (JNK1/2/3)	mitochondrial membrane potential (HepG2 cells [9])
CN(C)C(=O)N1CCc2c(sc(NC(=O)c3cccc4ccccc34)c2C#N)C1 [PKL-A117]	inhibited	12.8	31.4	40.6	inhibited	inhibited	better binding	–	–	–	–	–	–	–	–	–	–
N#Cc1c(NC(=O)c2cccc3ccccc23)sc2c1CCN(C(=O)Nc1ccccc1F)C2 [PKL-A119]	inhibited	12.5	31.2	40.1	inhibited	inhibited	better binding	–	–	–	–	–	–	–	–	–	–
CC(C)(C)OC(=O)N1CCc2c(sc(NC(=O)c3cccc4ccccc34)c2C#N)C1 [PKL-A131]	inhibited	13.1	29.3	44.8	inhibited	inhibited	better binding	–	–	–	–	–	–	–	–	–	–
COc1ccc(C(=O)N2CCc3c(sc(NC(=O)c4cccc5ccccc45)c3C#N)C2)cc1OC [PKL-A132]	inhibited	12.8	31.9	40.3	inhibited	inhibited	better binding	–	–	–	–	–	–	–	–	–	–
N#Cc1c(NC(=O)c2cccc3ccccc23)sc2c1CCN(C(=O)Nc1ccccc1Cl)C2 [PKL-A156]	–	13.5	50.8	26.6	–	–	–	14	exceptionally low cell viability	53.7	4.80	26.2	30.1	60.8	2.3	not significantly altered	significantly decreased
N#Cc1c(NC(=O)c2cccc3ccccc23)sc2c1CCN(C(=O)Nc1ccccc1C(F)(F)F)C2 [PKL-A158]	–	8.35	–	9.59	–	–	–	20.8	exceptionally low cell viability	51.9	5.12	39.5	31.6	60.3	3.5	not significantly altered	significantly decreased
